Measurements as given in patent publication US5843886A, “Method of treating or preventing Type 1 diabetes by oral administration of insulin” (Autoimmune, Inc., priority 1995, dated 1998).
Several values for one entry are separate records, joined by “and”; a condition that tells them apart may be missing. Equal entries are not always repeated. Entries after “also recorded” stand apart in the source; their conditions may differ.

Assays:
Format in all cases: in vivo, mouse
[1] = test system: NOD mice; assay: Glucose post oral insulin in fasting 7 week NOD mice; conditions: for blood glucose after feeding: measured over 24 hours
Method: In order to determine whether any endocrinologic (i.e. direct lowering of blood sugar) effects occurred following the feeding of insulin, 7 week old NOD mice (5 mice per group) were fed 1 mg of porcine insulin or 1 mg of myelin basic protein (obtained from Pel Freez, Rogers, AR) as a control protein. Blood glucose was then measured over the next 24 hour period. As a positive control, a separate group of animals were injected subcutaneously with 20 micrograms of Porcine insulin. All animals were kept in the fasting state.

[2] = test system: NOD mice; assay: Aerosol administration of insulin on diabetes in NOD mice (Example 4); conditions: 0 to 1 mg in aerosol form by nebulizer
Method: Insulin (0 to 1 mg as in Examples 1 and 2) will be administered to NOD mice as described above in Examples 1 and 2 except in aerosol form by nebulizer.

[3] = test system: NOD mice; assay: Spontaneous diabetes in NOD mice after oral feeding
Excerpt: NOD (non-obese diabetic mice) were obtained from Taconic Laboratories (Germantown, Mass.) at 4 weeks of age. There were a total of 30 animals in each of the groups mentioned below at the beginning of the experiment. At 41/2 weeks of age, animals were orally administered Porcine insulin (Novo Laboratories, Danbury, Conn.). Each animal received two treatments orally twice a week until 9 weeks of age. The mice were fed either saline (control) or 10 micrograms, 100 micrograms, or 1 milligram of Porcine insulin. The animals were fed (gavaged) with an 18 gauge ball-point needle (Popper and Sons, Inc., New Hyde Park, N.Y.). Beginning at 10 weeks the animals were then fed once a week for a total of 33 weeks. Beginning at 12 weeks the urine was tested weekly for the presence of glucose using Glucosuria test tape (Eli Lilly, Indianapolis, Ind.). If an animal tested 3+ or higher on the glucose urine test, a serum sample was taken and blood glucose measured using a glucose analyzer (Beckman). If the blood glucose was 220 or higher, the animals were classified as diabetic and then sacrificed. An identical experiment to Example 1 was performed in which NOD mice (14-17 per group) were fed one homogenized pancreas derived from Lewis rats in 0.5 mls PBS. […] Nonetheless, the effect is not as dramatic and complete as that seen in the animals fed insulin.

[4] = test system: NOD mice; assay: Insulitis in insulin-fed NOD mice (preliminary experiments, data not shown); conditions: fed 1 mg, compared with PBS-fed NOD mice
Excerpt: Therefore, oral administration of insulin to NOD mice appeared to be affecting the infiltration of immune system cells into the pancreas and thus halting disease progression by preserving beta cell function.

[5] = test system: NOD mice; assay: Treatment of initial stages of diabetes in hyperglycemic NOD mice (Example 5); conditions: 0 to 1 mg, oral and aerosol, start at weeks 12-20 of age
Method: Insulin (0 to 1 mg as in Examples 1 and 2) will be administered to NOD mice which are suffering from hyperglycemia in an oral and aerosol form. The treatments will begin by weeks 12-20 of age, by which the serum glucose levels are at hyperglycemic concentrations in a certain percentage of animals prior to onset of diabetes.

[6] = 20 micrograms injected subcutaneously, fasting 7 week old mice
[7] = fed 1 mg orally, fasting 7 week old mice

| Substance | decrease in blood glucose level [1, 6] | period over which the glucose decrease persisted [1, 6] [h] | endocrinologic (metabolic) effects ([1]; fed 1 mg orally) | blood glucose after feeding [1, 7] | prevention of the manifestation of symptoms (hyperglycemia) of Type 1 diabetes [2] | incidence of diabetes ([3]; all oral doses tested (10 micrograms, 100 micrograms, 1 mg)) | development of diabetes ([3]; fed 1 mg orally (gavage), twice a week until 9 weeks of age, then once a week, diabetic = blood glucose 220 or higher) | blood sugar on 10 representative animals ([3]; fed 1 mg, individual non-diabetic animals) [mg/dL] | development of diabetes ([3]; fed 10 micrograms orally, same schedule) | blood sugar in animals which developed diabetes ([3]; fed 10 micrograms, individual animals) | development of diabetes ([3]; fed 100 micrograms orally, same schedule) | blood sugar in animals that became diabetic ([3]; fed 100 micrograms, individual animals) | treated animals that failed to develop diabetes ([3]; highest oral dose (1 mg)) [%] | inflammatory immune system cells surrounding the pancreas (insulitis) [4] | beta cell function [5] | serum glucose concentrations [5] |
| --- | --- | --- | --- | --- | --- | --- | --- | --- | --- | --- | --- | --- | --- | --- | --- | --- |
| Porcine insulin | approximately 80 mg % | 4 | no endocrinologic (metabolic) effects | no drop in the blood glucose | effective in preventing the manifestation of symptoms | lower incidence of diabetes; also recorded: reduced the numbers of these mice which subsequently went on to develop diabetes | none of the mice went on to develop diabetes; also recorded: no diabetes developed; also recorded: None of the animals developed diabetes | 130 | diabetes developed | 330 mg/dL and 420 mg/dL and 520 mg/dL | diabetes developed | 500 mg/dL and 290 mg/dL and 600 mg/dL and 450 mg/dL | 100 | fewer inflammatory immune system cells surrounding the pancreas | preservation of beta cell function | reduction in serum glucose concentrations to near normal levels |
| myelin basic protein |  |  |  | no drop in the blood glucose |  |  |  |  |  |  |  |  |  |  |  |  |
